Assay results from patent publication US9440957B2, “Compounds and compositions for modulating EGFR Activity” (Novartis AG, priority 2012, dated 2016).
Read-outs that look alike come from different tables or passages of the source.

Experiments:
EGFR(L858R/T790M) = biological target: T1, EGFR(L858R/T790M) (Homo sapiens, UniProt P00533, L858R/T790M); experiment: EGFR biochemical assay (HTRF), IC50 determinations
T1 construct: purchased from Carna (GST-a.a. 669-1210)
Summary of the method: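 Two formats were run: compound preincubated at room temperature with enzyme and biotin-TK peptide before ATP starts the reaction, or no preincubation with enzyme added last. Reactions ran 60 min at room temperature and were stopped with EDTA. Phosphopeptide was read by HTRF (PT66K/SAXL, 1 h).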

[1] = biological target: human EGFR WT (NIH/3T3 cells, EGF-induced) (Homo sapiens, UniProt P00533); experiment: EGFR target modulation in engineered NIH/3T3 cell lines (phospho-EGFR Y1068 AlphaLISA), EGFR WT; type: cell-based; details: engineered NIH/3T3 cells, read-out: NIH3T3 IC50 (μM) EGFR (WT)
Sequence of human EGFR WT (NIH/3T3 cells, EGF-induced) (P00533 25-1210): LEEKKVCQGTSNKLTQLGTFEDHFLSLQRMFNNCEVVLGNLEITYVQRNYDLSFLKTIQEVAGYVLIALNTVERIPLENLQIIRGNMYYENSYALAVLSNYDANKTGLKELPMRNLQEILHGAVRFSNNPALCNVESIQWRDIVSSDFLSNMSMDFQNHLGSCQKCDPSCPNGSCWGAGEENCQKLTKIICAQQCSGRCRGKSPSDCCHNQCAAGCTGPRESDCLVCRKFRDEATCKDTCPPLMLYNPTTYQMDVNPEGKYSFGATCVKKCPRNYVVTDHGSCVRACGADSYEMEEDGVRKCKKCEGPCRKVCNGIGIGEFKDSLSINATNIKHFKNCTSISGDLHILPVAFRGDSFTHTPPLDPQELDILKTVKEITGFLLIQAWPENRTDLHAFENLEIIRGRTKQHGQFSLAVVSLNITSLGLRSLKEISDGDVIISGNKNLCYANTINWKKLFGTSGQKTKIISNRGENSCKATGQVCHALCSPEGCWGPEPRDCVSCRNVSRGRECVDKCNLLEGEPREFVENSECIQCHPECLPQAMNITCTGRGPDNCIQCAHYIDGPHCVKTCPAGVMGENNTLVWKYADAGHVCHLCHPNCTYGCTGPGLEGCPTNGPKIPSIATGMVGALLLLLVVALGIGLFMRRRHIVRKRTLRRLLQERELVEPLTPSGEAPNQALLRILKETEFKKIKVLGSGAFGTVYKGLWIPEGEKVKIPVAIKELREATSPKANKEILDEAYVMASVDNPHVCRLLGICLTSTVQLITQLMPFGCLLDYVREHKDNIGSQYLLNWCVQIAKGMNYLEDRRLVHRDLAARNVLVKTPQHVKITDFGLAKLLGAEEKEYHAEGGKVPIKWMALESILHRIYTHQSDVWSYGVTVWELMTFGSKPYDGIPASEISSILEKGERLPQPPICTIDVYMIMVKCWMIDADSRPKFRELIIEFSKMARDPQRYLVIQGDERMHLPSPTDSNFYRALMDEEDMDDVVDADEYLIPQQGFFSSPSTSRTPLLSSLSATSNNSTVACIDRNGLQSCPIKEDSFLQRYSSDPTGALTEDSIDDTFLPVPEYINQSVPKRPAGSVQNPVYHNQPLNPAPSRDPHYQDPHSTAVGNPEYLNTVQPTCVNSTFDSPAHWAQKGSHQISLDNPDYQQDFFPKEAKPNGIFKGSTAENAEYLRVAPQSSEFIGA
Summary of the method: (§1)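 Engineered NIH/3T3 cells expressing EGFR variants treated 3 h at 37 °C with 12-point 1:3 compound series (top stock 10 μM); only WT cells stimulated with 50 ng/ml EGF for 5 min before lysis. Phospho-Y1068 measured by AlphaLISA with total-EGFR antibody; IC50 from non-linear fitting.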

[2] = biological target: human EGFR L858R (NIH/3T3 cells) (Homo sapiens, UniProt P00533, L858R); experiment: EGFR target modulation in engineered NIH/3T3 cell lines (phospho-EGFR Y1068 AlphaLISA), EGFR L858R; type: cell-based; details: engineered NIH/3T3 cells, read-out: NIH3T3 IC50 (μM) EGFR (L858R)
Sequence of human EGFR L858R (NIH/3T3 cells) (P00533 25-1210 L858R): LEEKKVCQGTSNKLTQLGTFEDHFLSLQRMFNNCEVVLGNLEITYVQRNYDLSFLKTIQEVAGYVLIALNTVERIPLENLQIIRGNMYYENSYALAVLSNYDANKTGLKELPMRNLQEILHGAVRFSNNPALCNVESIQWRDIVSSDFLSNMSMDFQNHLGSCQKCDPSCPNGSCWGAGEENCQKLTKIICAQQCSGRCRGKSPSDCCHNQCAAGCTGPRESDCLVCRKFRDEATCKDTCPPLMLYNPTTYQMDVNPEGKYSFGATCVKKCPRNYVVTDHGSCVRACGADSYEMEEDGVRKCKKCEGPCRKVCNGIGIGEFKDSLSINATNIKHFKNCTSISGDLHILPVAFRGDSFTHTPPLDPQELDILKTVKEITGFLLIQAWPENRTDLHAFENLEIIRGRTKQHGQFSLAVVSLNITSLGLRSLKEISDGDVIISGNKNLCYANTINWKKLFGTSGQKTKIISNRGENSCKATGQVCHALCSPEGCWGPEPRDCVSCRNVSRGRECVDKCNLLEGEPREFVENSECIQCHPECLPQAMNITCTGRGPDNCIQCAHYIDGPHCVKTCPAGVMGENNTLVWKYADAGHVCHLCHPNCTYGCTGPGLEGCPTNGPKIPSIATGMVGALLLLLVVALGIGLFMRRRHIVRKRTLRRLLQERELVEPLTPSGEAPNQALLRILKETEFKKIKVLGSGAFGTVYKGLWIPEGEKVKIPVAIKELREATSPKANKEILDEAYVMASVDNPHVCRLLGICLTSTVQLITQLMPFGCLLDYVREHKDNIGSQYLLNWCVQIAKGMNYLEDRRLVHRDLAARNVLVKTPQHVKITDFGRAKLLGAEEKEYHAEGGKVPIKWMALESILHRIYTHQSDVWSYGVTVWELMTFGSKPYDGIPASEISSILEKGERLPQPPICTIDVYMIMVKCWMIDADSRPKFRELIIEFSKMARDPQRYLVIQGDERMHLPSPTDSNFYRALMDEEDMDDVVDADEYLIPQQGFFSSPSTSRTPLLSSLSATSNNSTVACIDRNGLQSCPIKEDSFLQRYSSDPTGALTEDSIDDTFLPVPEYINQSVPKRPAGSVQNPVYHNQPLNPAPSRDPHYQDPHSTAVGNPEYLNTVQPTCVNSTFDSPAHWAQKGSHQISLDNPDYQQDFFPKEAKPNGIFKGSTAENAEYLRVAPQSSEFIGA
Summary of the method: as §1

[3] = biological target: human EGFR L858R/T790M (NIH/3T3 cells) (Homo sapiens, UniProt P00533, L858R/T790M); experiment: EGFR target modulation in engineered NIH/3T3 cell lines (phospho-EGFR Y1068 AlphaLISA), EGFR L858R/T790M; type: cell-based; details: engineered NIH/3T3 cells, read-out: NIH3T3 IC50 (μM) EGFR (L858R/T790M)
Summary of the method: as §1

H1975 (EGFR L858/T790M) = H1975 (EGFR L858/T790M) (Homo sapiens, UniProt P00533, L858R/T790M); experiment: EGFR target modulation in H1975 cell line (phospho-EGFR Y1173 ELISA); type: cell-based
Procedure: (§2) EGFR Target Modulation in H1975, H3255 and HCC827 Cell Lines Tissue Culture. Cells were maintained in 10% FBS/RPMI supplemented with 100 μg/ml Penicillin/Streptomycin (Hyclone #SH30236.01). […] The cells were allowed to incubate overnight in a 37° C., 5% CO2 humidified tissue culture incubator. […] The serial diluted compounds were transferred to the plate containing cells by using a 50 nl Pin Head device (Perkin Elmer) and the cells were placed back in the incubator for 3 hours. Phospho-EGFR ([…]) Target Modulation Assay. The media was reduced to 20 ul using a Bio-Tek ELx 405 SelectTM plate washer. […] The plates were shaken at 4° C. for 20 minutes. An aliquot of 25 ul from each well was transferred to pEGFR(Y1173) ELISA plates for analysis. Phospho-EGFR ([…]) ELISA. Solid white high-binding ELISA plates (Greiner #781074) were coated with 5 ug/ml anti-EGFR capture antibody (R&D Systems #AF231) overnight in 50 mM carbonate/bicarbonate pH 9.5 buffer. Plates were blocked with 1% BSA (Sigma #A7030) in PBS for 1 hour at room temperature. Wash steps were carried out with a Bio-Tek ELx405 SelectTM using 4 cycles of 100 ul TBS-T (20 mM Tris, 137 mM NaCl, 0.05% Tween-20) per well. […] Lysis was allowed to occur for 20 minutes on ice. A 25 ul aliquot was added to each well of the blocked ELISA plate and incubated overnight at 4° C. with gentle shaking. […] After washing, 1:2,000 anti-rabbit-HRP (Cell Signaling #7074) in 0.2% BSA/TBS-T was added and incubated for 1 hour at room temperature. Chemiluminescent detection was carried out with SuperSignal ELISA Pico substrate (ThermoScientific #37069). Signal was read on EnVision plate reader using built-in UltraLUM setting. Data Analysis. Control cells treated with EGF were set to 100% maximum response. […] With these parameters, the IC50's for each compound in each cell line was calculated using non-linear curve fitting analysis.

H3255 (EGFR L858R) = H3255 (EGFR L858R) (Homo sapiens, UniProt P00533, L858R); experiment: EGFR target modulation in H3255 cell line (phospho-EGFR Y1173 ELISA); type: cell-based
Sequence of H3255 (EGFR L858R) (P00533 25-1210 L858R): as above
Procedure: as §2

HEKn (EGFR WT) = HEKn (EGFR WT) (Homo sapiens, UniProt P00533); experiment: EGFR target modulation in HEKn (EGFR-WT) cell line (phospho-EGFR Y1173 ELISA); type: cell-based; details: value outside parentheses
Procedure: EGFR Target Modulation in HEKn (EGFR-WT) Cell Line Tissue Culture. Human neonatal epithelial keratinocytes (Invitrogen #C-001-5C) were maintained in EpiLife media (Invitrogen #[…]) supplemented with growth factors (Invitrogen #S-001-5). Cells were harvested with 0.05% Trypsin/EDTA (Hyclone #SH30236.01) and quenched with 5% FBS/EpiLife media. […] The serial diluted compounds were transferred to the plate containing cells by using a 50 nl Pin Head device (Perkin Elmer) and the cells were placed back in the incubator for 3 hours. […] Phospho-EGFR (Y1173) ELISA. Solid white high-binding ELISA plates (Greiner #781074) were coated with 5 ug/ml anti-EGFR capture antibody (R&D Systems #AF231) overnight in 50 mM carbonate/bicarbonate pH 9.5 buffer. […] Wash steps were carried out with a Bio-Tek ELx405 SelectTM using 4 cycles of 100 ul TBS-T (20 mM Tris, 137 mM NaCl, 0.05% Tween-20) per well. […] Lysis was allowed to occur for 20 minutes on ice. A 25 ul aliquot was added to each well of the blocked ELISA plate and incubated overnight at 4° C. with gentle shaking. […] After washing, 1:2,000 anti-rabbit-HRP (Cell Signaling #7074) in 0.2% BSA/TBS-T was added and incubated for 1 hour at room temperature. Chemiluminescent detection was carried out with SuperSignal ELISA Pico substrate (ThermoScientific #37069). Signal was read on EnVision plate reader using built-in UltraLUM setting. Data Analysis. Control cells treated with EGF were set to 100% maximum response. […] With these parameters, the IC50's for each compound in each cell line was calculated using non-linear curve fitting analysis.

[4] = EGFR (L858R/T790M) with 90 min pre-incubation, read-out: IC50 (μM) Column B
[5] = EGFR (L858R/T790M) with no pre-incubation, read-out: IC50 (μM) Column A

T1 sequence (P00533 669-1210 T790M/L858R): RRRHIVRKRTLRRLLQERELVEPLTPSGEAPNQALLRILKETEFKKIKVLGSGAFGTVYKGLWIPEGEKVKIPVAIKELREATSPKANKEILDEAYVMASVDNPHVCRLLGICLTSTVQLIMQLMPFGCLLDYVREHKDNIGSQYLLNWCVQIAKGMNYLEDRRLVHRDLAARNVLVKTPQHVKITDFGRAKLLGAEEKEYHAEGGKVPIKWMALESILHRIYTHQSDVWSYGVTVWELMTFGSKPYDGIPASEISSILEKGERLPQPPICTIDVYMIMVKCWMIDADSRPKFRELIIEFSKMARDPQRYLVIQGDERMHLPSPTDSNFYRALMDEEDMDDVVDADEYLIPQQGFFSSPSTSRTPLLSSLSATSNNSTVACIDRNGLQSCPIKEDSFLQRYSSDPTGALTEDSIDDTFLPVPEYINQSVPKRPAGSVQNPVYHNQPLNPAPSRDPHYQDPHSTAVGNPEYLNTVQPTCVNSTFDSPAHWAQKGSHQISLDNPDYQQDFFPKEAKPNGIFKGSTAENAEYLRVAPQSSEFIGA

| Compound | IC50 (EGFR(L858R/T790M); [4]) [µM] | IC50 (EGFR(L858R/T790M); [5]) [µM] | IC50 [1] [µM] | IC50 [2] [µM] | IC50 [3] [µM] | IC50 (H1975 (EGFR L858/T790M)) [nM] | IC50 (H3255 (EGFR L858R)) [nM] | IC50 (HEKn (EGFR WT)) [nM] |
| --- | --- | --- | --- | --- | --- | --- | --- | --- |
| C=CC(=O)N1CCCC[C@@H](n2c(NC(=O)c3cccc(C(F)(F)F)c3)nc3cccc(C)c32)C1 (single isomer, unassigned) [Example 21-4] | < 0.001 | 0.006 | 0.239 | 0.004 | 0.002 | 1 | 13 | 285 |
| C=CC(=O)N1CCCC[C@@H](n2c(NC(=O)c3ccnc(C)c3)nc3cccc(Cl)c32)C1 [Example 17-17] | < 0.001 | 0.004 | 0.211 | 0.008 | 0.005 | 3 | 8 | 176 |
| Cc1cc(C(=O)Nc2nc3cccc(Cl)c3n2[C@@H]2CCCCN(C(=O)/C=C/CN3CC(O)C3)C2)ccn1 [Example 3-13] | < 0.001 | 0.007 | 0.41 | 0.014 | 0.022 | 19 | 12 | 900 |
| Cc1cc(C(=O)Nc2nc3cccc(Cl)c3n2[C@@H]2CCCCN(C(=O)/C=C/CN3CC[C@@H](F)C3)C2)ccn1 [Example 3-1] | < 0.001 | 0.005 | 0.235 | 0.003 | 0.004 | 6 | 7 | 340 |
| C=CC(=O)N1CCCC[C@@H](n2c(NC(=O)c3cnnc(C)c3)nc3cccc(C)c32)C1 [Example 17-81] | < 0.001 | 0.002 | 0.067 | 0.003 | 0.002 | 2 | 4 | 162 |
| Cc1cccc2nc(NC(=O)c3cncc(-n4cccc4)c3)n([C@@H]3CCCCN(C(=O)/C=C/CN(C)C)C3)c12 [Example 17-70] | < 0.001 | < 0.001 | 0.035 | 0.001 | < 0.001 | < 1 | 7 | 185 |
| C=CC(=O)N1CCC[C@@H](n2c(NC(=O)c3ccnc(C)c3)nc3cccc(C)c32)C1 [Example 17-109] | < 0.001 | 0.025 | 0.88 | 0.032 | 0.028 | 14 | 43 | 1680 |
| C=CC(=O)N1CCCC[C@@H](n2c(NC(=O)c3ccnnc3)nc3cccc(OC)c32)C1 [Example 17-84] | 0.003 | 0.049 | 1.94 | 0.04 | 0.028 | 37 | 137 | 1660 |

Other lines, results leading:

| IC50 (EGFR(L858R/T790M); [4]) [µM] | IC50 (EGFR(L858R/T790M); [5]) [µM] | IC50 [1] [µM] | IC50 [2] [µM] | IC50 [3] [µM] | IC50 (H1975 (EGFR L858/T790M)) [nM] | IC50 (H3255 (EGFR L858R)) [nM] | IC50 (HEKn (EGFR WT)) [nM] | Compound |
| --- | --- | --- | --- | --- | --- | --- | --- | --- |
| < 0.001 | 0.003 | 0.008 | 0.001 | 0.001 | 2 | 1 | 24 | Cc1cccc2nc(NC(=O)c3ccc(Cl)nc3)n([C@@H]3CCCCN(C(=O)/C=C/CN(C)C)C3)c12 [Example 17-77] |
| 0.002 | 0.021 | 0.67 | 0.012 | 0.005 | 12 | 88 | 1000 | Cc1cccc2nc(NC(=O)c3cccc(F)c3F)n(C3CCCCN(C(=O)/C=C/CN(C)C)C3)c12 (centres unmarked) [Example 17-27] |
| < 0.001 | 0.017 | 0.218 | 0.025 | 0.007 | 26 | 85 | 3140 | COc1cc(C(=O)Nc2nc3cccc(C)c3n2[C@@H]2CCCCN(C(=O)/C=C/CN(C)C)C2)cc(Cl)n1 [Example 17-75] |
| < 0.001 | 0.002 | 0.029 | 0.002 | 0.002 | 2 | 3 | 134 | COc1cc(C(=O)Nc2nc3cccc(C)c3n2[C@@H]2CCCCN(C(=O)/C=C/CN(C)C)C2)ccn1 [Example 17-71] |
| < 0.001 | 0.014 | 0.283 | 0.004 | 0.01 | 24 | 81 | 370 | Cc1cccc2nc(NC(=O)c3ccc(F)cc3F)n(C3CCCCN(C(=O)/C=C/CN(C)C)C3)c12 (centres unmarked) [Example 17-28] |
| < 0.001 | 0.02 | 0.82 | 0.028 | 0.017 | 93 | 290 | 2610 | Cc1cccc2nc(NC(=O)c3cc(F)ccc3F)n(C3CCCCN(C(=O)/C=C/CN(C)C)C3)c12 (centres unmarked) [Example 17-29] |
| < 0.001 | 0.009 | 0.052 | 0.002 | 0.003 | 17 | 4 | 186 | Cc1ccc(C(=O)Nc2nc3cccc(C)c3n2C2CCCCN(C(=O)/C=C/CN(C)C)C2)cn1 (centres unmarked) [Example 17-47] |
| < 0.001 | 0.006 | 0.152 | 0.005 | 0.006 | 134 | 37 | 1680 | Cc1cccc2nc(NC(=O)c3cnc(Cl)c(Cl)c3)n([C@@H]3CCCCN(C(=O)/C=C/CN(C)C)C3)c12 [Example 17-78] |
| < 0.001 | 0.007 | 0.122 | 0.005 | 0.004 | 10 | 7 | 380 | COc1cc(C(=O)Nc2nc3cccc(C)c3n2C2CCCCN(C(=O)/C=C/CN(C)C)C2)ccn1 (centres unmarked) [Example 17-48] |
| < 0.001 | 0.006 | 0.094 | 0.005 | 0.006 | 7 | 9 | 225 | Cc1cccc2nc(NC(=O)c3ccnnc3)n(C3CCCCN(C(=O)/C=C/CN(C)C)C3)c12 (centres unmarked) [Example 17-24] |
| < 0.001 | 0.006 | 0.016 | 0.001 | 0.002 | 4 | 2 | 95 | Cc1ncc(C(=O)Nc2nc3cccc(C)c3n2C2CCCCN(C(=O)/C=C/CN(C)C)C2)s1 (single isomer, unassigned) [Example 21-8B] |
